The conditions of data set [1]: Beagle dog, oral, 500 mg, 1 dose.
A further data set in a line: in vivo. The settings on record: male, beagle, dog, plasma, po, 500 mg.
The conditions of data set [2]: cited from earlier work.

Molecules are shown by their SMILES. Structures can show the parent of a compound that is named as a salt. Bounds are passed on as bounds.

As to `CN(C)C(=N)N=C(N)N` [Metformin (Matrix-free), metformin hydrochloride], the “Ke (terminal elimination rate per hour)” value in data set [1] worked out at 0.157 h⁻¹. In “in vivo”, the AUC(0-inf) (usually the area under the concentration-time curve extrapolated to infinity) was found to be 81200 ng·h/mL; the exposure AUC(0-t) – broadly, exposure summed from dosing to a finite time, without extrapolation to infinity – turned out to be 77900 ng·h/mL; the Cmax (usually the peak of the concentration-time curve) was 12400 ng/mL; the mean residence time (MRT) (as a rule, a mean duration of stay, worked out from the concentration-time curve) came to 8.02 h. For the same compound, the Tmax – broadly, the time at which the peak concentration occurs – in “in vivo” worked out at 1.3 h.
In the case of `CN(C)C(=N)N=C(N)N` [Metformin], the “Time to complete absorption after administration” value in data set [2] (estimated) is recorded as not above 6 h. In data set [2] (in vivo), the “Absorbed in the remaining part of (lower) intestine tract” value is listed as “about 40%” and the Recovered in faeces result is on record as “up to 30%”.

The values are drawn from patent publication US20240293327A1, “MONOLITHIC TABLETS BASED ON CARBOXYL POLYMERIC COMPLEXES FOR CONTROLLED DRUG RELEASE” (MATRIPHARM INTERNATIONAL INC., priority 2014, published 2024).
